From ChEMBL document CHEMBL1201862, “PubChem BioAssay data set” (2004)
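Step 1: Grow cells in 96-well plates. Step 2: Expose to compound for 48 hours at 5 concentrations. Step 3: Interpolate endpoints linearly; if unreached, use highest concentration. GI50 is the concentration that inhibits growth by half.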 Activity calls are given as the source filed them. Rule as the data show it: active = GI50 up to about 1.1 µM and inactive = higher.

What was measured:
Experiment in all cases: inhibition of tumour cell growth, NCI panel, 48 h
[1] = system: HL-60
[2] = system: K562
[3] = system: 786-0
[4] = system: MDA-MB-231
[5] = system: SK-OV-3
[6] = system: SF-295
[7] = system: HOP-62
[8] = system: U-251
[9] = system: CCRF-CEM
[10] = system: OVCAR-5
[11] = system: KM12
[12] = system: MDA-MB-435
[13] = system: NCI-H522
[14] = system: MOLT-4
[15] = system: SW-620
[16] = system: A549
[17] = system: PC-3
[18] = system: UACC-257
[19] = system: DU-145
[20] = system: HCT-116
[21] = system: SF-268
[22] = system: LOX IMVI
[23] = system: SN12C
[24] = system: SNB-75
[25] = system: UO-31
[26] = system: NCI/ADR-RES
[27] = system: COLO 205
[28] = system: CAKI-1
[29] = system: HT-29
[30] = system: NCI-H460
[31] = system: RPMI-8226
[32] = system: MCF7
[33] = system: HOP-92
[34] = system: SK-MEL-28
[35] = system: SK-MEL-5
[36] = system: HCT-15
[37] = system: MDA-N
[38] = system: SNB-19
[39] = system: SK-MEL-2
[40] = system: SF-539
[41] = system: M14
[42] = system: T47D
[43] = system: BT-549
[44] = system: TK-10
[45] = system: ACHN
[46] = system: Hs-578T
[47] = system: OVCAR-3
[48] = system: OVCAR-8
[49] = system: NCI-H226
[50] = system: IGROV-1
[51] = system: UACC-62
[52] = system: RXF 393
[53] = system: SR
[54] = system: EKVX
[55] = system: NCI-H23
[56] = system: Malme-3M
[57] = system: A498
[58] = system: HCC 2998
[59] = system: OVCAR-4

CC1(C)CC(=O)c2c(nc3c(ccc4ccccc43)c2-c2ccc(NC(=O)CCC(=O)Nc3ccc(-c4c5c(nc6c4ccc4ccccc46)CC(C)(C)CC5=O)cc3)cc2)C1
GI50 [1]: > 100 µM (inactive)
GI50 [2]: > 100 µM (inactive)
GI50 [3]: > 100 µM (inactive)
GI50 [4]: > 100 µM (inactive)
GI50 [5]: > 100 µM (inactive)
GI50 [6]: > 100 µM (inactive)
GI50 [7]: > 100 µM (inactive)
GI50 [8]: > 100 µM (inactive)
GI50 [9]: > 100 µM (inactive)
GI50 [10]: > 100 µM (inactive)
GI50 [11]: > 100 µM (inactive)
GI50 [12]: > 100 µM (inactive)
GI50 [13]: > 100 µM (inactive)
GI50 [14]: > 100 µM (inactive)
GI50 [15]: > 100 µM (inactive)
GI50 [16]: > 100 µM (inactive)
GI50 [17]: > 100 µM (inactive)
GI50 [18]: > 100 µM (inactive)
GI50 [19]: > 100 µM (inactive)
GI50 [20]: > 100 µM (inactive)
GI50 [21]: > 100 µM (inactive)
GI50 [22]: > 100 µM (inactive)
GI50 [23]: > 100 µM (inactive)
GI50 [24]: 25 µM (inactive)
GI50 [25]: > 100 µM (inactive)
GI50 [26]: > 100 µM (inactive)
GI50 [27]: > 100 µM (inactive)
GI50 [28]: > 100 µM (inactive)
GI50 [29]: > 100 µM (inactive)
GI50 [30]: > 100 µM (inactive)
GI50 [31]: > 100 µM (inactive)
GI50 [32]: > 100 µM (inactive)
GI50 [33]: > 100 µM (inactive)
GI50 [34]: > 100 µM (inactive)
GI50 [35]: > 100 µM (inactive)
GI50 [36]: > 100 µM
GI50 [37]: > 100 µM (inactive)
GI50 [38]: > 100 µM (inactive)
GI50 [39]: > 100 µM (inactive)
GI50 [40]: > 100 µM (inactive)
GI50 [41]: > 100 µM (inactive)
GI50 [42]: > 100 µM (inactive)
GI50 [43]: > 100 µM (inactive)
GI50 [44]: > 100 µM (inactive)
GI50 [45]: > 100 µM (inactive)
GI50 [46]: > 100 µM (inactive)
GI50 [47]: > 100 µM (inactive)
GI50 [48]: > 100 µM (inactive)
GI50 [49]: > 100 µM (inactive)
GI50 [50]: > 100 µM (inactive)
GI50 [51]: > 100 µM (inactive)
GI50 [52]: > 100 µM (inactive)
GI50 [53]: > 100 µM (inactive)
GI50 [54]: 95.3 µM (inactive)

CN(CCc1ccc(Br)cc1)CCN1CCCCC1
GI50 [2]: 15.1 µM (inactive)
GI50 [3]: 30.1 µM (inactive)
GI50 [4]: 17.3 µM (inactive)
GI50 [5]: 55.8 µM (inactive)
GI50 [6]: 25.1 µM (inactive)
GI50 [7]: 31.8 µM (inactive)
GI50 [8]: 39.5 µM (inactive)
GI50 [9]: 16.4 µM (inactive)
GI50 [10]: 41 µM (inactive)
GI50 [55]: 31.9 µM (inactive)
GI50 [11]: 21.1 µM (inactive)
GI50 [12]: 26.4 µM (inactive)
GI50 [13]: 21.6 µM (inactive)
GI50 [14]: 31 µM (inactive)
GI50 [15]: 33.5 µM (inactive)
GI50 [16]: 43.4 µM (inactive)
GI50 [17]: 27.2 µM (inactive)
GI50 [56]: 22.8 µM (inactive)
GI50 [18]: 36.3 µM (inactive)
GI50 [19]: 99.5 µM (inactive)
GI50 [20]: 17.7 µM (inactive)
GI50 [21]: 65.3 µM (inactive)
GI50 [22]: 28.6 µM (inactive)
GI50 [57]: 21 µM (inactive)
GI50 [23]: 81.1 µM (inactive)
GI50 [24]: 22.3 µM (inactive)
GI50 [25]: 36.1 µM (inactive)
GI50 [58]: 33.7 µM (inactive)
GI50 [26]: 46.5 µM (inactive)
GI50 [27]: 16.3 µM (inactive)
GI50 [28]: 43.2 µM (inactive)
GI50 [29]: 12.7 µM (inactive)
GI50 [30]: 37.9 µM (inactive)
GI50 [31]: 62.5 µM (inactive)
GI50 [32]: 21.7 µM (inactive)
GI50 [33]: 17.7 µM (inactive)
GI50 [34]: 20.4 µM (inactive)
GI50 [35]: 14.9 µM (inactive)
GI50 [36]: 60.5 µM
GI50 [37]: 22.6 µM (inactive)
GI50 [38]: > 100 µM (inactive)
GI50 [39]: 24.4 µM (inactive)
GI50 [40]: 27.3 µM (inactive)
GI50 [41]: 22.8 µM (inactive)
GI50 [42]: 39.7 µM (inactive)
GI50 [43]: 24.8 µM (inactive)
GI50 [44]: 71.3 µM (inactive)
GI50 [45]: 62.5 µM (inactive)
GI50 [59]: 54.8 µM (inactive)
GI50 [46]: 19.7 µM (inactive)
GI50 [47]: 36.6 µM (inactive)
GI50 [48]: 31.4 µM (inactive)
GI50 [49]: 33.4 µM (inactive)
GI50 [50]: 36.4 µM (inactive)
GI50 [52]: 36.4 µM (inactive)
GI50 [54]: > 100 µM (inactive)

Cc1cc2cc3c(cc2c(-c2ccc(N)cc2)n1)OCO3
GI50 [1]: 12 µM (inactive)
GI50 [2]: 23.1 µM (inactive)
GI50 [3]: 25.6 µM (inactive)
GI50 [4]: 13.7 µM (inactive)
GI50 [5]: > 100 µM (inactive)
GI50 [6]: 34.2 µM (inactive)
GI50 [7]: 57.1 µM (inactive)
GI50 [8]: 62.5 µM (inactive)
GI50 [9]: 28.5 µM (inactive)
GI50 [10]: 36.6 µM (inactive)
GI50 [55]: 61.2 µM (inactive)
GI50 [11]: 38.9 µM (inactive)
GI50 [12]: 76.6 µM (inactive)
GI50 [13]: 42.5 µM (inactive)
GI50 [14]: 13.8 µM (inactive)
GI50 [15]: 31.6 µM (inactive)
GI50 [16]: 74.1 µM (inactive)
GI50 [17]: 40.7 µM (inactive)
GI50 [56]: 86.9 µM (inactive)
GI50 [18]: > 100 µM (inactive)
GI50 [19]: 49.9 µM (inactive)
GI50 [20]: 31.6 µM (inactive)
GI50 [21]: 22.3 µM (inactive)
GI50 [23]: 39.4 µM (inactive)
GI50 [25]: 29.2 µM (inactive)
GI50 [26]: 72.9 µM (inactive)
GI50 [27]: 26.8 µM (inactive)
GI50 [28]: 26.5 µM (inactive)
GI50 [29]: 22.2 µM (inactive)
GI50 [30]: 21.3 µM (inactive)
GI50 [31]: 23.8 µM (inactive)
GI50 [32]: 7.74 µM (inactive)
GI50 [33]: 13.9 µM (inactive)
GI50 [35]: 24.2 µM (inactive)
GI50 [36]: 53 µM
GI50 [37]: 23.3 µM (inactive)
GI50 [38]: > 100 µM (inactive)
GI50 [39]: 82.8 µM (inactive)
GI50 [40]: > 100 µM (inactive)
GI50 [41]: 81.8 µM (inactive)
GI50 [42]: 29.6 µM (inactive)
GI50 [43]: > 100 µM (inactive)
GI50 [44]: 39.9 µM (inactive)
GI50 [45]: 39.5 µM (inactive)
GI50 [46]: 51.3 µM (inactive)
GI50 [47]: 22.4 µM (inactive)
GI50 [48]: 81.7 µM (inactive)
GI50 [50]: 14.5 µM (inactive)
GI50 [51]: 30.8 µM (inactive)
GI50 [53]: 15.6 µM (inactive)
GI50 [54]: 35.4 µM (inactive)
